Source: ChEMBL document CHEMBL4190392, “Enhancing Action of Positive Allosteric Modulators through the Design of Dimeric Compounds” (J Med Chem, 2018)

Target: Glutamate receptor 2 (Homo sapiens, UniProt P42262)
Assay: Positive allosteric modulation of GluA2Q flop isoform (unknown origin) expressed in HEK293 cells assessed as increase in L-glutamate induced calcium flux after 1 hr by fluo-4AM dye-based fluorescence assay
Type: cell-based
Conditions: read-out: EC50

Sequence of Glutamate receptor 2 (P42262 whole entry, canonical isoform): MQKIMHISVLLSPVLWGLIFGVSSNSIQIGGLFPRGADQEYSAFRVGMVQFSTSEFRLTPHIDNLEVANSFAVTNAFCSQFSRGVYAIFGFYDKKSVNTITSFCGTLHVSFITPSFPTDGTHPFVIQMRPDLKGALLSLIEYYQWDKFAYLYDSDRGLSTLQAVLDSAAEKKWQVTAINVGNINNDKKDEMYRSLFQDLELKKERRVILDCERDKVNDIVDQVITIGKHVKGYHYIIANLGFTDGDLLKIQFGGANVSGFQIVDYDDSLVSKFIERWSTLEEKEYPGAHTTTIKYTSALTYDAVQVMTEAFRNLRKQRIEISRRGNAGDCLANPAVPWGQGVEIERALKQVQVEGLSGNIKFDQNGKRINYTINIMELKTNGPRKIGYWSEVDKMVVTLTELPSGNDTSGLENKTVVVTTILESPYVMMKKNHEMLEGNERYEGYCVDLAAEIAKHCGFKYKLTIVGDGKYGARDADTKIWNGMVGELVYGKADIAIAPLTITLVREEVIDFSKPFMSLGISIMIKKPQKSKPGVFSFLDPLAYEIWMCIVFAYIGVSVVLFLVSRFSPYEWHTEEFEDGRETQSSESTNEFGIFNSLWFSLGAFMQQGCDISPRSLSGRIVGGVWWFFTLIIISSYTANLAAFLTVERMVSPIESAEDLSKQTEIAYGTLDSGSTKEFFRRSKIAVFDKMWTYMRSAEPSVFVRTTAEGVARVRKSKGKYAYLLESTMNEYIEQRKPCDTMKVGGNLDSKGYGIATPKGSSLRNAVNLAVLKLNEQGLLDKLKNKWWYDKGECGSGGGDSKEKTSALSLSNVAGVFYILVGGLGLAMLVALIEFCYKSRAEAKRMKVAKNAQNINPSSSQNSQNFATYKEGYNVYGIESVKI

Row | EC50 [µM] | Compound
1 | 176 | CN1CNS(=O)(=O)c2ccccc21
2 | 9.06 | O=S1(=O)NCN(C2CC2)c2ccccc21
3 | 0.0134 | CN1CNS(=O)(=O)c2ccc(CCc3ccc4c(c3)N(C)CNS4(=O)=O)cc21
4 | 48.2 | Cc1ccc2c(c1)N(C1CC1)CNS2(=O)=O
5 | 403 | Cc1ccc2c(c1)N(C)CNS2(=O)=O
6 | 0.0014 | O=S1(=O)NCN(C2CC2)c2cc(CCc3ccc4c(c3)N(C3CC3)CNS4(=O)=O)ccc21

Same assay, conditions: read-out: pEC50 (converted)

Row | EC50 [µM] | Compound
7 | 0.0145 | CN1CNS(=O)(=O)c2ccc(CCc3ccc4c(c3)N(C)CNS4(=O)=O)cc21
8 | 49 | Cc1ccc2c(c1)N(C1CC1)CNS2(=O)=O
